# “And” between values parts separate entries of the source, which are not always exact repeats. Equal entries are not always repeated. “Also recorded” adds a separate entry of the source. Where two headings read alike, the source gives them in different places.
# Key:
# [1] = molecular target: T1, PPARγ (Homo sapiens, UniProt P37231); experiment: nuclear receptor cellular GAL4 reporter assay; assay type: cell-based; details: agonist and antagonist mode; read-out: potency in agonist and antagonist mode
# T1 construct: expressed in transfected cells
# [2] = molecular target: T2, SAPK3(h) (Homo sapiens, UniProt P53778); experiment: Kinase panel; assay type: biochemical
# T2 construct: purchased Cerep (receptors, ion channels, transporters); Eurofins Panlabs (kinases)
# Procedure: (§1) Kinase selectivity was conducted by Eurofins Panlabs Inc (St Charles, MO).
# [3] = molecular target: T3, mu (h) (MOP) (agonist site) (Homo sapiens, UniProt P35372); experiment: Cerep panel; assay type: binding
# T3 construct: purchased Cerep (receptors, ion channels, transporters); Eurofins Panlabs (kinases)
# Procedure: (§2) A panel of 52 different receptors, ion channels and transporters was tested by Cerep, Inc. (Redmond, WA).
# [4] = molecular target: T4, NEK2(h) (Homo sapiens, UniProt P51955); experiment: Kinase panel; assay type: biochemical
# T4 construct: purchased Cerep (receptors, ion channels, transporters); Eurofins Panlabs (kinases)
# Procedure: as §1
# [5] = molecular target: T5, PPARβ (Homo sapiens, UniProt Q03181); experiment: nuclear receptor cellular GAL4 reporter assay; assay type: cell-based; details: agonist and antagonist mode; read-out: potency in agonist and antagonist mode
# T5 construct: expressed in transfected cells
# [6] = molecular target: T6, Pim-2(h) (Homo sapiens, UniProt Q9P1W9); experiment: Kinase panel; assay type: biochemical
# T6 construct: purchased Cerep (receptors, ion channels, transporters); Eurofins Panlabs (kinases)
# Procedure: as §1
# [7] = molecular target: MOP (Homo sapiens, UniProt P35372); experiment: GPCR panel, cAMP or calcium FLIPR assays; assay type: cell-based
# Procedure: 28 GPCRs were evaluated through cAMP or calcium FLIPR assays[67]. A panel of 52 different receptors, ion channels and transporters was tested by Cerep, Inc. (Redmond, WA). Kinase selectivity was conducted by Eurofins Panlabs Inc (St Charles, MO).
# [8] = molecular target: T7, Rsk3(h) (Homo sapiens, UniProt Q15349); experiment: Kinase panel; assay type: biochemical
# T7 construct: purchased Cerep (receptors, ion channels, transporters); Eurofins Panlabs (kinases)
# Procedure: as §1
# [9] = molecular target: T8, Flt3(h) (Homo sapiens, UniProt P36888); experiment: Kinase panel; assay type: biochemical
# T8 construct: purchased Cerep (receptors, ion channels, transporters); Eurofins Panlabs (kinases)
# Procedure: as §1
# [10] = molecular target: ADRB2 (Homo sapiens, UniProt P07550); experiment: GPCR panel, cAMP or calcium FLIPR assays; assay type: cell-based
# Procedure: (§3) 28 GPCRs were evaluated through cAMP or calcium FLIPR assays[67].
# [11] = molecular target: T9, PKCα(h) (Homo sapiens, UniProt P17252); experiment: Kinase panel; assay type: biochemical
# T9 construct: purchased Cerep (receptors, ion channels, transporters); Eurofins Panlabs (kinases)
# Procedure: as §1
# [12] = molecular target: 5HT2C (Homo sapiens, UniProt P28335); experiment: GPCR panel, cAMP or calcium FLIPR assays; assay type: cell-based
# Procedure: as §3
# [13] = molecular target: T10, CLK2(h) (Homo sapiens, UniProt P49760); experiment: Kinase panel; assay type: biochemical
# T10 construct: purchased Cerep (receptors, ion channels, transporters); Eurofins Panlabs (kinases)
# Procedure: as §1
# [14] = molecular target: T11, ZAP-70(h) (Homo sapiens, UniProt P43403); experiment: Kinase panel; assay type: biochemical
# T11 construct: purchased Cerep (receptors, ion channels, transporters); Eurofins Panlabs (kinases)
# Procedure: as §1
# [15] = molecular target: T12, IR(h) (Homo sapiens, UniProt P06213); experiment: Kinase panel; assay type: biochemical
# T12 construct: purchased Cerep (receptors, ion channels, transporters); Eurofins Panlabs (kinases)
# Procedure: as §1
# [16] = molecular target: T13, PKA(h) (Homo sapiens, UniProt P17612); experiment: Kinase panel; assay type: biochemical
# T13 construct: purchased Cerep (receptors, ion channels, transporters); Eurofins Panlabs (kinases)
# Procedure: as §1
# [17] = molecular target: T14, EphA2(h) (Homo sapiens, UniProt P29317); experiment: Kinase panel; assay type: biochemical
# T14 construct: purchased Cerep (receptors, ion channels, transporters); Eurofins Panlabs (kinases)
# Procedure: as §1
# [18] = mouse PK/PD model, plasma exposure; assay type: in vivo; details: female, C57B6, mouse, 100 mg/kg oral
# From the text: Compound concentrations are also listed as undiluted (measured) and diluted (extrapolated) in Supplementary Table S2.
# [19] = molecular target: 5HT2B (Homo sapiens, UniProt P41595); experiment: GPCR panel, cAMP or calcium FLIPR assays; assay type: cell-based
# Procedure: as §3
# [20] = molecular target: T15, 5-HT7 (h) (Homo sapiens, UniProt P34969); experiment: Cerep panel; assay type: binding
# T15 construct: purchased Cerep (receptors, ion channels, transporters); Eurofins Panlabs (kinases)
# Procedure: as §2
# [21] = molecular target: T16, A2A (h) (Homo sapiens, UniProt P29274); experiment: Cerep panel; assay type: binding
# T16 construct: purchased Cerep (receptors, ion channels, transporters); Eurofins Panlabs (kinases)
# Procedure: as §2
# [22] = molecular target: T17, CXCR2 (h) (IL-8B) (Homo sapiens, UniProt P25025); experiment: Cerep panel; assay type: binding
# T17 construct: purchased Cerep (receptors, ion channels, transporters); Eurofins Panlabs (kinases)
# Procedure: as §2
# [23] = test system: human CD4+ T cells under Th1 conditions; experiment: in vitro human Th1 differentiation, IFNγ production
# Procedure: On day 4, supernatants were analyzed for IL-17A, IL-17F, IL-22 and IFNγ production.
# Total CD4^+ T cells were isolated from peripheral blood mononuclear cells (PBMCs) of healthy donors using a CD4^+ T cell Isolation Kit II (Miltenyl Biotec, Auburn, CA), following the manufacturer’s instructions.
# In vitro human Th17 and Th1 differentiation
# Total CD4+ T cells were isolated from the peripheral blood mononuclear cells (PBMCs) of healthy donors
# using a CD4+ T cell Isolation Kit II (Miltenyl Biotec, Auburn, CA), following the manufacturer’s
# instructions. Isolated T cells were resuspended in culture medium and added to a 96-well plate at 1×105
# beads (prepared using human T cell activation/expansion kit, Miltenyi Biotec) at final concentration of
# 3x10^6/mL, and cocktail for either Th17 differentiation (10 µg/mL anti-IL-4, 10 µg/mL anti-IFN, 10 ng/mL
# IL-1β, 10 ng/mL IL-23, 50 ng/mL IL-6, 3 ng/mL TGFβ and 20 U/mL IL-2), or for Th1 differentiation (10
# µg/mL anti-IL-4, 10 ng/mL IL-12, and 20 U/mL IL-2). Cells were cultured at 37°C and 5% CO2 for 3 days.
# Supernatants were assayed for accumulated cytokines using MSD multi-spot assay (Meso Scale
# Discovery, Rockville, MD) or R&D ELISA kit.
# [24] = test system: Cl- channel; experiment: Cerep panel; assay type: binding
# Procedure: as §2
# [25] = molecular target: T18, ORL1 (h) (NOP) (Homo sapiens, UniProt P41146); experiment: Cerep panel; assay type: binding
# T18 construct: purchased Cerep (receptors, ion channels, transporters); Eurofins Panlabs (kinases)
# Procedure: as §2
# [26] = molecular target: T19, PR (Homo sapiens, UniProt P06401); experiment: nuclear receptor cellular GAL4 reporter assay; assay type: cell-based; details: agonist and antagonist mode; read-out: potency in agonist and antagonist mode
# T19 construct: expressed in transfected cells
# [27] = molecular target: T20, 5-HT2A (h) (Homo sapiens, UniProt P28223); experiment: Cerep panel; assay type: binding
# T20 construct: purchased Cerep (receptors, ion channels, transporters); Eurofins Panlabs (kinases)
# Procedure: as §2
# [28] = molecular target: T21, Y2 (h) (Homo sapiens, UniProt P49146); experiment: Cerep panel; assay type: binding
# T21 construct: purchased Cerep (receptors, ion channels, transporters); Eurofins Panlabs (kinases)
# Procedure: as §2
# [29] = molecular target: T22, A3 (Homo sapiens, UniProt P0DMS8); experiment: follow-up functional study; assay type: cell-based; details: read-out: IC50 in follow-up functional studies
# T22 sequence (P0DMS8 1-318): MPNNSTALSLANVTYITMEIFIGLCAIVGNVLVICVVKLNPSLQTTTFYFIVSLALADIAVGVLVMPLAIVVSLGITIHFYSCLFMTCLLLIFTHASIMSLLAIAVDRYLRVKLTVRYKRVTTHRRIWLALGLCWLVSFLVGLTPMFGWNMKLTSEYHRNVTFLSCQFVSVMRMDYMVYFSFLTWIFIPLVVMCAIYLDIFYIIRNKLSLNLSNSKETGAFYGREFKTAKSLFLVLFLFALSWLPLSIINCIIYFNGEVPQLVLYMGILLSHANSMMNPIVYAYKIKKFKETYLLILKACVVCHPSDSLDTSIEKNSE
# [30] = plasma (5-fold diluted, extrapolated), calculated for 5-fold dilution, read-out: concentration in 5-fold diluted plasma
# [31] = plasma, mean ± SD, n=10, read-out: concentration in undiluted plasma
# T10 sequence (P49760 whole entry): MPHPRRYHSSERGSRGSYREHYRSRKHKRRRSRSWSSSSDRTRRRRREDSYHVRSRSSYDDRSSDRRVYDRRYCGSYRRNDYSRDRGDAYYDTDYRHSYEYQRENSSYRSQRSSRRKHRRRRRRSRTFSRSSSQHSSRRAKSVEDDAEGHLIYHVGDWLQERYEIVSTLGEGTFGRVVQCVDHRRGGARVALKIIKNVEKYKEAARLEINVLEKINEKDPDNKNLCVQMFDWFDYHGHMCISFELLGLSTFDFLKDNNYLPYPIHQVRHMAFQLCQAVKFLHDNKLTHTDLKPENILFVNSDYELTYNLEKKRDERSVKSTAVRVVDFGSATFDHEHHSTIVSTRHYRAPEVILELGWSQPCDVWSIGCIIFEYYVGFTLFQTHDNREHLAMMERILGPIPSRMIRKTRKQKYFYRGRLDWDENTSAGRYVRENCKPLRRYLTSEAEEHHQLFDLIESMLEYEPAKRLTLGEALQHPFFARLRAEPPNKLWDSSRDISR
# T2 sequence (P53778 whole entry): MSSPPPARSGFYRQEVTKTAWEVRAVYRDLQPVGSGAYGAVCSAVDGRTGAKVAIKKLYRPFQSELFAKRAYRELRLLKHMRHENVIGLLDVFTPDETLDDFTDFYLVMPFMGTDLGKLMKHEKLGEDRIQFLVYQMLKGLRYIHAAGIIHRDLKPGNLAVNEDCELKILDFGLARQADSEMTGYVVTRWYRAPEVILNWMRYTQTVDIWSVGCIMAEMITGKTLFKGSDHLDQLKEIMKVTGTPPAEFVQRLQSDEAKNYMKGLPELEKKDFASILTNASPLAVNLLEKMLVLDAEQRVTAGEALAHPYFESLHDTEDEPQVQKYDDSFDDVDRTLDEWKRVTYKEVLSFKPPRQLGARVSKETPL
# T3 sequence (P35372 whole entry): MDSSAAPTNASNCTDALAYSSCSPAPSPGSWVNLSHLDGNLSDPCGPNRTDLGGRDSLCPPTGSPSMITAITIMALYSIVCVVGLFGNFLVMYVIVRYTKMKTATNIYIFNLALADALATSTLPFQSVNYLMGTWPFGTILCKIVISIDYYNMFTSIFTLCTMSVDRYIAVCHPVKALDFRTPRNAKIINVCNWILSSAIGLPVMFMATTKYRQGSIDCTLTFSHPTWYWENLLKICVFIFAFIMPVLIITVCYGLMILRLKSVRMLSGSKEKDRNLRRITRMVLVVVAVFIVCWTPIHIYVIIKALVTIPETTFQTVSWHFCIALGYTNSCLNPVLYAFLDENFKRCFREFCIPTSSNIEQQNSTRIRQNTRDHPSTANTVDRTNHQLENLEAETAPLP
# Chain of MOP (P35372 whole entry): as above
# T6 sequence (Q9P1W9 whole entry): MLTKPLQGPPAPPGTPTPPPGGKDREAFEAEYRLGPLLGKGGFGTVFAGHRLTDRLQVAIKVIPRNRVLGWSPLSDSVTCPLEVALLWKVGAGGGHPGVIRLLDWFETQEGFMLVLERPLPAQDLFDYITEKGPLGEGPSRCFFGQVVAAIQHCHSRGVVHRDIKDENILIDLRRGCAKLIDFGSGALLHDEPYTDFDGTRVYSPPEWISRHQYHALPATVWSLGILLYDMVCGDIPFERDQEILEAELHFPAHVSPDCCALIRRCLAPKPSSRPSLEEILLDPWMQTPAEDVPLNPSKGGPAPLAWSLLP
# T18 sequence (P41146 whole entry): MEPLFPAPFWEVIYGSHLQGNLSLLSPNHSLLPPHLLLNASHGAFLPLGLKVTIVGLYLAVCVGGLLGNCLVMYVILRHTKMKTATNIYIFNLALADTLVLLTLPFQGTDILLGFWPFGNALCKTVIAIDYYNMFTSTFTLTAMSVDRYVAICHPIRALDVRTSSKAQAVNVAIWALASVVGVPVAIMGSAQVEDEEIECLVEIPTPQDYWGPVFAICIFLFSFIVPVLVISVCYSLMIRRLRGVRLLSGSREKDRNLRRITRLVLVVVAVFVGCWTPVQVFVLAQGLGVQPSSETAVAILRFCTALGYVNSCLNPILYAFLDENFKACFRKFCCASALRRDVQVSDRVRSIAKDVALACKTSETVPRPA
# T16 sequence (P29274 whole entry): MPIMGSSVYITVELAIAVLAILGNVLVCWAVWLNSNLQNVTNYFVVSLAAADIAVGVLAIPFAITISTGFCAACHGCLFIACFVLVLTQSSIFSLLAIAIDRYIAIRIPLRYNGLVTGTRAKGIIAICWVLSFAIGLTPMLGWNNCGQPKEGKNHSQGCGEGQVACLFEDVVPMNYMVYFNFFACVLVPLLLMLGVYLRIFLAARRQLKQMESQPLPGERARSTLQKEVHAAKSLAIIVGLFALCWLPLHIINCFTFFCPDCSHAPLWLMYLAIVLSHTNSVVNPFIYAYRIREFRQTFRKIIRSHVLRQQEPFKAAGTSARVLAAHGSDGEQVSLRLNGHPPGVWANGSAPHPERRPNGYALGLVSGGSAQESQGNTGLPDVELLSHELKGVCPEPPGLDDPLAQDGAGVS
# T14 sequence (P29317 24-976): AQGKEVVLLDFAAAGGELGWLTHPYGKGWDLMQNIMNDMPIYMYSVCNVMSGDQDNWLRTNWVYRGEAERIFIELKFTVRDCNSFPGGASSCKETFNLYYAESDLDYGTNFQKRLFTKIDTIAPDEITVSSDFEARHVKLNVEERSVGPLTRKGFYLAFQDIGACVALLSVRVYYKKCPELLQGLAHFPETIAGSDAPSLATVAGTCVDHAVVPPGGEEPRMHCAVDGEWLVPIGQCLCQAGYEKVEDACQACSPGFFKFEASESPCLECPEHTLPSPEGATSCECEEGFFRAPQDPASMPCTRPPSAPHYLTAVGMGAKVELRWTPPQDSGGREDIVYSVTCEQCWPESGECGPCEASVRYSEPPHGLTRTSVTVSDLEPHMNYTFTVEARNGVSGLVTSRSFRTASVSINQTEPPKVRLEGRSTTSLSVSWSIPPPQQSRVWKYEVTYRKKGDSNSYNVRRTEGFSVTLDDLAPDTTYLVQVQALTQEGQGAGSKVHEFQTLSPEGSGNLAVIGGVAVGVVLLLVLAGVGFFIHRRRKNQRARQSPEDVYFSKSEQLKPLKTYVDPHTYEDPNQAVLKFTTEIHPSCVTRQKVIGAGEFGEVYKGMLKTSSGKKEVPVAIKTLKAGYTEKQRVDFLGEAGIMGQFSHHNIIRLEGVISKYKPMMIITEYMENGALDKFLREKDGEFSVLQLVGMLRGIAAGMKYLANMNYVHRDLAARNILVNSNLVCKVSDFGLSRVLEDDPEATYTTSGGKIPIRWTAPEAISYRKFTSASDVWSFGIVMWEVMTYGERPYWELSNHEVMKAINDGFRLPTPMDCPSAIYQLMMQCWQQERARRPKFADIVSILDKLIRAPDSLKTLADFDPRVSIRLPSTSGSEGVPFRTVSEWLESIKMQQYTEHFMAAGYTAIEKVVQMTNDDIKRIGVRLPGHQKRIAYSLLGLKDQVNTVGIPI
# T8 sequence (P36888 27-993): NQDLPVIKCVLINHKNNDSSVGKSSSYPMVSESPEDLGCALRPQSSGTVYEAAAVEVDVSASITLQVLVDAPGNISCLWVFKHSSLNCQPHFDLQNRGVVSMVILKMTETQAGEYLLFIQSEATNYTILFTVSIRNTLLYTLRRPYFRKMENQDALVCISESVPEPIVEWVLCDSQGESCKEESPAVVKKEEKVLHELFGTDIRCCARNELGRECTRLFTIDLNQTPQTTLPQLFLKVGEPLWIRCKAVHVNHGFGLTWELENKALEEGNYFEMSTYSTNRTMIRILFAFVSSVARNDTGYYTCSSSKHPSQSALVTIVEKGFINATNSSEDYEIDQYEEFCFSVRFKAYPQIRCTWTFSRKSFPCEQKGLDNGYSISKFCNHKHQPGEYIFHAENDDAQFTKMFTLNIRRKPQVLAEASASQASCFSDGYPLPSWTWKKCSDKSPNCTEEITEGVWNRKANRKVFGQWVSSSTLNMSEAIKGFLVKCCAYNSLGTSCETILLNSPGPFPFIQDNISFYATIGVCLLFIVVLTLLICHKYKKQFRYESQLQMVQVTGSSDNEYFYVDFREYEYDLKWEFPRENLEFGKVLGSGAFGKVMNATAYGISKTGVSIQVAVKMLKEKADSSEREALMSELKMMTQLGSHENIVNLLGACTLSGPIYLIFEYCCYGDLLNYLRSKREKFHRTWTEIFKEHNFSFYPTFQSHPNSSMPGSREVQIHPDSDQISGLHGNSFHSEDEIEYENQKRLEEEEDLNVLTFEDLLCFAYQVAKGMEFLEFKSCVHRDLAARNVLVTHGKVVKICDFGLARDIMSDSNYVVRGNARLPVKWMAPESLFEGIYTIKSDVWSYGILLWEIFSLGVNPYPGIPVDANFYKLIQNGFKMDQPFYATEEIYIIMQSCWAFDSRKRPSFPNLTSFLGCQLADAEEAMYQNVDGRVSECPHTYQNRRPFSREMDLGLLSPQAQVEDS
# Chain of 5HT2C (P28335 33-458, species assumed): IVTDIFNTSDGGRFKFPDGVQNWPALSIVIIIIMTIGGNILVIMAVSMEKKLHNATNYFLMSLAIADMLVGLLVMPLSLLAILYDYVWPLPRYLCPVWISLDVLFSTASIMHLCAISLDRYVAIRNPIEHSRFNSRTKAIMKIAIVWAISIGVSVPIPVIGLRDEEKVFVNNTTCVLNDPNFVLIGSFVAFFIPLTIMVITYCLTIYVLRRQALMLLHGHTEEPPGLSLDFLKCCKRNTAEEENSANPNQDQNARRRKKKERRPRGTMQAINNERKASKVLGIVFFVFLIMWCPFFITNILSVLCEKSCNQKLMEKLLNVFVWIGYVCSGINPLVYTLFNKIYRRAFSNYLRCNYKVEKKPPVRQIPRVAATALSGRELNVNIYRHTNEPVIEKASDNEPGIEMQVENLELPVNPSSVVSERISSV
smiles,measurement,setting,value
CC1CCCN1C(=O)c1nc(C(=O)NCC(C)(C)O)sc1-c1ccc(C(O)(C(F)(F)F)C(F)(F)F)c(Cl)c1Cl (stereo not drawn) [JNJ-61803534],IC50,[1],> 1.5 µM
same,activity at 1 µM,[2],106%
same,activity at 10 µM,[2],112%
same,inhibition at 1 µM,[3],< 10%
same,inhibition at 10 µM,[3],12.2%
same,activity at 1 µM,[4],102%
same,activity at 10 µM,[4],108%
same,IC50,[5],> 1.5 µM
same,activity at 1 µM,[6],102%
same,activity at 10 µM,[6],107%
same,EC50,[7]; agonist,> 12.5 µM
same,IC50,[7]; antagonist,> 12.5 µM
same,activity at 1 µM,[8],107%
same,activity at 10 µM,[8],104%
same,activity at 1 µM,[9],84%
same,activity at 10 µM,[9],103%
same,EC50,[10]; agonist,> 12.5 µM
same,IC50,[10]; antagonist,> 12.5 µM
same,activity at 1 µM,[11],102%
same,activity at 10 µM,[11],99%
same,EC50,[12]; agonist,> 10 µM
same,IC50,[12]; antagonist,> 10 µM
same,activity at 1 µM,[13],108%
same,activity at 10 µM,[13],99%
same,activity at 1 µM,[14],137%
same,activity at 10 µM,[14],119%
same,activity at 1 µM,[15],92%
same,activity at 10 µM,[15],89%
same,activity at 1 µM,[16],85%
same,activity at 10 µM,[16],88%
same,activity at 1 µM,[17],99%
same,activity at 10 µM,[17],102%
same,concentration at 1 h,[18]; [30],10 ± 2.8 µM
same,concentration at 2 h,[18]; [30],6.1 ± 3.1 µM
same,concentration at 4 h,[18]; [30],5 ± 1.7 µM
same,concentration at 7 h,[18]; [30],2.3 ± 0.5 µM
same,concentration at 12 h,[18]; [30],0.86 ± 0.4 µM
same,concentration at 18 h,[18]; [30],0.24 ± 0.1 µM
same,concentration at 1 h,[18]; [31],31000 ng/mL and 49.8 µM
same,concentration at 2 h,[18]; [31],18900 ng/mL and 30.4 µM
same,concentration at 4 h,[18]; [31],15500 ng/mL and 24.9 µM
same,concentration at 7 h,[18]; [31],11.7 µM and 7280 ng/mL
same,concentration at 12 h,[18]; [31],4.3 µM and 2670 ng/mL
same,concentration at 18 h,[18]; [31],1.2 µM and 759 ng/mL
same,EC50,[19]; agonist,> 10 µM
same,IC50,[19]; antagonist,> 10 µM
same,inhibition at 1 µM,[20],< 10%
same,inhibition at 10 µM,[20],< 10%
same,inhibition at 1 µM,[21],< 10%
same,inhibition at 10 µM,[21],< 10%
same,inhibition at 1 µM,[22],< 10%
same,inhibition at 10 µM,[22],< 10%
same,inhibition of IFNγ production,[23],no inhibition; also recorded: did not inhibit
same,% Inhibition at 1 µM,[24]; 1 µM,10.5%
same,% Inhibition at 10 µM,[24]; 10 µM,86.4%
same,inhibition at 1 µM,[25],< 10%
same,inhibition at 10 µM,[25],< 10%
same,IC50,[26],> 1.5 µM
same,inhibition at 1 µM,[27],< 10%
same,inhibition at 10 µM,[27],< 10%
same,inhibition at 1 µM,[28],< 10%
same,inhibition at 10 µM,[28],< 10%
same,IC50,[29],> 12.5 µM

# Source: article PMC8155022 (Scientific Reports, 2021)
